Measurements as given in patent US9233979B2, “Compounds that are ERK inhibitors” (Merck Sharp & Dohme Corp., priority 2012, dated 2016).
Where two headings read alike, the source gives them in different places.

Biological target: phosphorylated active hERK2 enzyme (Homo sapiens (Human), UniProt P28482)
Assay: Active Human ERK2 (hERK2) Activity Assay (IMAP-FP)
Type: biochemical
Details: 10 point titration, read-out: AERK2 IC50
Description: Assays Active Human ERK2 (hERK2) Activity Assay:
Activated ERK2 activity was determined in an IMAP-FP assay (Molecular Devices). […] The final reaction in each well of 25 μL consists of 0.5 nM hERK2, 900 nM unlabeled peptide, 80 nM labeled-peptide, and 30 μM ATP. Phosphorylation reactions were allowed to proceed for 60 minutes and were immediately quenched by the addition of 60 μL IMAP detection beads (1:1000 dilutions) in IMAP binding buffer (Molecular Devices) with 24 mM NaCl. Plates were read on EnVision reader after 60 minutes binding equilibration using Fluorescence Polarization protocol (Perkin Elmer).

[1] = Table 5, 0.5 nM hERK2, 30 μM ATP
[2] = Table 6, 0.5 nM hERK2, 30 μM ATP

phosphorylated active hERK2 enzyme, sequence (P28482 whole entry): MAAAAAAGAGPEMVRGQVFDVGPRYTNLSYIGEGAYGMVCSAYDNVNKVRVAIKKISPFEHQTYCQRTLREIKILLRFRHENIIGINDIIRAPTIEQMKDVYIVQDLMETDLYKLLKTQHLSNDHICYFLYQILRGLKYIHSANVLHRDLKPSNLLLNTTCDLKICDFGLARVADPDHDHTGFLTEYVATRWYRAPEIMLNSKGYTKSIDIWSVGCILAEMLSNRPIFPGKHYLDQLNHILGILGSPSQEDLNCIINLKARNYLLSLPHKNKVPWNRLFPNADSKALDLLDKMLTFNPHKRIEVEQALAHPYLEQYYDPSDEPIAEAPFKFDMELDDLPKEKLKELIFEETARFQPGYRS

| Structure (SMILES) | IC50 [1] [nM] | IC50 [2] [nM] |
| --- | --- | --- |
| C[C@@H](NC(=O)Nc1cc2[nH]nc(NS(=O)(=O)CC3CC3)c2cn1)c1ccccc1 [Example 55, 1-cyclopropyl-N-[6-({[(1R)-1-phenylethyl]carbamoyl}amino)-1H-pyrazolo[4,3-c]pyridin-3-yl]methanesulfonamide] | 88.8 |  |
| C[C@@H](NC(=O)Nc1cc2[nH]nc(NS(=O)(=O)C3CNC3)c2cn1)c1ccccc1 [Example 56] | 191 |  |
| CC(=O)Nc1n[nH]c2c(F)c(NC(=O)N[C@H](C)c3ccccc3)ncc12 [Example 58, (R)—N-(7-Fluoro-6-(3-(1-phenylethyl)ureido)-1H-pyrazolo[4,3-c]pyridin-3-yl)acetamide] | 6.43 |  |
| C[C@@H](NC(=O)Nc1ncc2c(N)n[nH]c2c1F)c1ccccc1 [Example 59, (R)-1-(3-Amino-7-fluoro-1H-pyrazolo[4,3-c]pyridin-6-yl)-3-(1-phenylethyl)urea] | 6.47 |  |
| CCNc1n[nH]c2c(C)c(NC(=O)N[C@H](C)c3ccccc3)ncc12 [Example 60, (R)-1-(3-(Ethylamino)-7-methyl-1H-pyrazolo[4,3-c]pyridin-6-yl)-3-(1-phenylethyl)urea] | 38.8 |  |
| Cc1ccc(Nc2n[nH]c3cc(NC(=O)N[C@H](C)c4ccccc4)ncc23)cn1 [Example 61, 1-{3-[(6-methylpyridin-3-yl)amino]-1H-pyrazolo[4,3-c]pyridin-6-yl}-3-[(1R)-1-phenylethyl]urea] |  | 8.8 |
| Cc1cc(Nc2n[nH]c3cc(NC(=O)N[C@H](C)c4ccccc4)ncc23)ccn1 [Example 62, 1-{3-[(2-methylpyridin-4-yl)amino]-1H-pyrazolo[4,3-c]pyridin-6-yl}-3-[(1R)-1-phenylethyl]urea] |  | 14.7 |
| C[C@@H](NC(=O)Nc1cc2[nH]nc(N3CCc4scnc4C3)c2cn1)c1ccc(F)cc1 [Example 63, 1-[3-(6,7-dihydro[1,3]thiazolo-[4,5-c]pyridin-5(4H)-yl)-1H-pyrazolo[4,3-c]pyridin-6-yl]-3-[(1R)-1-(4-fluorophenyl)ethyl]-urea] |  | 5.8 |
| COC(=O)N[C@H](C(=O)Nc1n[nH]c2cc(NC(=O)N[C@H](C)c3ccc(F)cc3)ncc12)C1CCOCC1 [Example 65, methyl [(1S)-2-{[6-({[(1R)-1-(4-fluoro-phenyl)ethyl]carbamoyl}-amino)-1H-pyrazolo[4,3-c]-pyridin-3-yl]amino}-2-oxo-1-(tetrahydro-2H-pyran-4-yl)-ethyl]carbamate] |  | 365 |
| CCNc1n[nH]c2cc(NC(=O)N[C@H](CO)c3ccccc3)ncc12 [Example 67, 1-[3-(ethylamino)-1H-pyrazolo[4,3-c]pyridin-6-yl]-3-[(1S)-2-hydroxy-1-phenylethyl]urea] |  | 0.7 |
| C[C@@H](NC(=O)Nc1cc2[nH]nc(N)c2c(CO)n1)c1ccccc1 [Example 68, (R)-1-(3-amino-4-(hydroxymethyl)-1H-pyrazolo[4,3-c]pyridin-6-yl)-3-(1-phenylethyl)urea] |  | 0.5 |
| C[C@@H](NC(=O)Nc1cc2[nH]nc(NC3=CC(=O)CC3)c2cn1)c1ccccc1 [Example 73, (R)-1-(3-((3-oxocyclopent-1-en-1-yl)amino)-1H-pyrazolo[4,3-c]pyridin-6-yl)-3-(1-phenylethyl)urea] |  | 39.2 |
| C[C@@H](NC(=O)Nc1cc2[nH]nc(N[C@@H]3CCOC3)c2cn1)c1ccccc1 [Example 74, 1-[(1R)-1-phenylethyl]-3-{3-[(3R)-tetrahydro-furan-3-ylamino]-1H-pyrazolo[4,3-c]-pyridin-6-yl}urea] |  | 1.7 |
| COC[C@@H](NC(=O)Nc1cc2[nH]nc(N[C@@H]3CCOC3)c2cn1)c1ccccc1 [Example 75, 1-[(1S)-2-methoxy-1-phenylethyl]-3-{3-[(3R)-tetrahydro-furan-3-ylamino]-1H-pyrazolo[4,3-c]-pyridin-6-yl}urea] |  | 0.8 |
| C[C@@H](NC(=O)Nc1cc2[nH]nc(N[C@H]3CCOC3)c2cn1)c1ccccc1 [Example 77, 1-[(1R)-1-phenylethyl]-3-{3-[(3S)-tetrahydro-furan-3-ylamino]-1H-pyrazolo[4,3-c]-pyridin-6-yl}urea] |  | 2.1 |
| CC1CC(Nc2n[nH]c3cc(NC(=O)N[C@H](C)c4ccccc4)ncc23)C(C)O1 (stereo partly drawn) [Example 78, 1-(3-((2,5-dimethyltetrahydro-furan-3-yl)amino)-1H-pyrazolo[4,3-c]-pyridin-6-yl)-3-((R)-1-phenylethyl)urea] |  | 7.4 |
| C[C@@H](NC(=O)Nc1cc2[nH]nc(N3CC(O)C3)c2cn1)c1ccccc1 [Example 79, 1-[3-(3-hydroxy-azetidin-1-yl)-1H-pyrazolo[4,3-c]-pyridin-6-yl]-3-[(1R)-1-phenylethyl]urea] |  | 9.7 |

Other lines, results leading:

| IC50 [1] [nM] | IC50 [2] [nM] | Structure (SMILES) |
| --- | --- | --- |
| 3.05 |  | CCNc1n[nH]c2c(F)c(NC(=O)N[C@H](C)c3ccccc3)ncc12 [Example 57, (R)-1-(3-(Ethylamino)-7-fluoro-1H-pyrazolo[4,3-c]pyridin-6-yl)-3-(1-phenylethyl)urea] |
|  | 5.6 | C[C@@H](O)[C@@H](NC(=O)Nc1cc2[nH]nc(N3CCc4scnc4C3)c2cn1)c1ccccc1 [Example 64, 1-[3-(6,7-dihydro[1,3]thiazolo-[4,5-c]pyridin-5(4H)-yl)-1H-pyrazolo[4,3-c]pyridin-6-yl]-3-[(1S,2R)-2-hydroxy-1-phenylpropyl]urea] |
|  | 31.6 | COC(=O)N[C@H](C(=O)Nc1n[nH]c2cc(NC(=O)N[C@H](C)c3ccc(F)cc3)ncc12)C(C)C [Example 66, methyl [(1S)-1-{[6-({[(1R)-1-(4-fluoro-phenyl)ethyl]-carbamoyl}-amino)-1H-pyrazolo[4,3-c]-pyridin-3-yl]-carbamoyl}-2-methylpropyl]-carbamate] |
|  | 1.5 | COCc1nc(NC(=O)N[C@H](C)c2ccccc2)cc2[nH]nc(N)c12 [Example 69, (R)-1-(3-amino-4-(methoxymethyl)-1H-pyrazolo[4,3-c]pyridin-6-yl)-3-(1-phenylethyl)urea] |
|  | 0.6 | CCNc1n[nH]c2cc(NC(=O)N[C@H](C)c3ccccc3)nc(CO)c12 [Example 70, 1-[3-(ethylamino)-4-(hydroxymethyl)-1H-pyrazolo[4,3-c]-pyridin-6-yl]-3-[(1R)-1-phenylethyl]urea] |
|  | 4.4 | CCNc1n[nH]c2cc(NC(=O)N[C@H](C)c3ccccc3)nc(COC)c12 [Example 71, (R)-1-(3-(ethylamino)-4-(methoxymethyl)-1H-pyrazolo[4,3-c]pyridin-6-yl)-3-(1-phenylethyl)urea] |
|  | 106 | COCc1nc(NC(=O)N[C@H](C)c2ccccc2)cc2[nH]nc(NC(C)=O)c12 [Example 72, (R)—N-(4-(methoxymethyl)-6-(3-(1-phenylethyl)ureido)-1H-pyrazolo[4,3-c]pyridin-3-yl)acetamide] |
|  | 1.3 | COC[C@@H](NC(=O)Nc1cc2[nH]nc(N[C@H]3CCOC3)c2cn1)c1ccccc1 [Example 76, 1-[(1S)-2-methoxy-1-phenylethyl]-3-{3-[(3S)-tetrahydro-furan-3-ylamino]-1H-pyrazolo[4,3-c]-pyridin-6-yl}urea] |
|  | 5.5 | COC[C@@H](NC(=O)Nc1cc2[nH]nc(N3CC(O)C3)c2cn1)c1ccccc1 [Example 80, 1-[3-(3-hydroxy-azetidin-1-yl)-1H-pyrazolo[4,3-c]-pyridin-6-yl]-3-[(1S)-2-methoxy-1-phenylethyl]urea] |
|  | 8.5 | COCC1CN(c2n[nH]c3cc(NC(=O)N[C@H](C)c4ccccc4)ncc23)C1 [Example 81, 1-{3-[3-(methoxy-methyl)azetidin-1-yl]-1H-pyrazolo[4,3-c]-pyridin-6-yl}-3-[(1R)-1-phenylethyl]-urea] |
